# Results reported in US10456407B2, “Combination therapy for treating cancer” (Epizyme, Inc., priority 2015, dated 2019).
# How the values were obtained:
# Assay type in all cases: cell-based
# SU-DHL10 cells = assay: RT2 Glucocorticoid signaling PCR array, SU-DHL10 (SUDHL10) cell line (Table 4d); details: SUDHL10, 4 days, vs DMSO
# From the text: Expression levels of (A). Sestrin; (B). TNF and (C) GILZ normalized to DMSO controls for each cell line with the indicated single agent or combination.
# SMARCB1 protein levels = assay: SMARCB1 (INI1) western blot in lymphoma cells; details: single agent treatment
# From the text: Glucocorticoid bound GR molecules move to the nucleus and can act as either transcriptional activator or repressor, depending on the cellular environment. […] Accessibility to GR binding sites can further be enhanced by ATP-dependent chromatin remodeling, and the SWI/SNF complex plays a key role in this activity. Not wishing to be bound by a particular theory or a specific mechanism of action, it is conceivable that aberrant chromatin repression, induced by EZH2 mediated hypertrimethylation of H3K27, can block some of the otherwise accessible GR binding sites, interfering with normal GR mediated gene induction or repression.
# RL cells = assay: RT2 Glucocorticoid signaling PCR array, RL (Table 4e, printed RI) cell line; details: 4 days, Cpd44 1 uM, Pred 10-fold below 4-day IC50, vs DMSO, B2M-normalized
smiles,measurement,setting,value
CCN(c1cc(-c2ccc(CN3CCOCC3)cc2)cc(C(=O)NCc2c(C)cc(C)[nH]c2=O)c1C)C1CCOCC1 [Compound 44],ADARB1 ΔΔCT,SU-DHL10 cells,0.073
same,AK2 ΔΔCT,SU-DHL10 cells,−0.101
same,ARIDS8 ΔΔCT,SU-DHL10 cells,0.650
same,ASPH ΔΔCT,SU-DHL10 cells,0.296
same,CEBPA ΔΔCT,SU-DHL10 cells,−1.026
same,DDIT4 ΔΔCT,SU-DHL10 cells,1.444
same,H6PD ΔΔCT,SU-DHL10 cells,1.221
same,LOX ΔΔCT,SU-DHL10 cells,1.164
same,NR3C1 ΔΔCT,SU-DHL10 cells,0.527
same,PER2 ΔΔCT,SU-DHL10 cells,0.441
same,SPHK1 ΔΔCT,SU-DHL10 cells,0.231
same,STAT5B ΔΔCT,SU-DHL10 cells,0.027
same,TNF ΔΔCT,SU-DHL10 cells,−0.204
same,VDR ΔΔCT,SU-DHL10 cells,−0.714
same,SMARCB1 protein levels,SMARCB1 protein levels,no effect
same,ΔΔCT,RL cells; ADARB1 mRNA,−1.672
same,ΔΔCT,RL cells; AFF1 mRNA,−2.005
same,ΔΔCT,RL cells; AK2 mRNA,0.268
same,ΔΔCT,RL cells; ANGPTL4 mRNA,−0.935
same,ΔΔCT,RL cells; ANXA4 mRNA,−0.562
same,ΔΔCT,RL cells; ARID68 mRNA,−1.220
same,ΔΔCT,RL cells; ATF4 mRNA,0.003
same,ΔΔCT,RL cells; CEBPB mRNA,−0.004
same,ΔΔCT,RL cells; COL4A2 mRNA,−0.773
same,ΔΔCT,RL cells; CREB1 mRNA,0.205
same,ΔΔCT,RL cells; CREB3L4 mRNA,−0.760
same,ΔΔCT,RL cells; CREB3 mRNA,−0.189
same,ΔΔCT,RL cells; CYB561 mRNA,−1.477
same,ΔΔCT,RL cells; DDIT4 mRNA,0.461
same,ΔΔCT,RL cells; DUSP1 mRNA,−0.321
same,ΔΔCT,RL cells; EDN1 mRNA,−1.208
same,ΔΔCT,RL cells; EHD3 mRNA,−0.962
same,ΔΔCT,RL cells; FK8PS mRNA,0.388
same,ΔΔCT,RL cells; GDPD1 mRNA,−0.772
same,ΔΔCT,RL cells; GLUL mRNA,−2.614
same,ΔΔCT,RL cells; GOT1 mRNA,0.518
same,ΔΔCT,RL cells; H6PD mRNA,−0.673
same,ΔΔCT,RL cells; HNRPLL mRNA,0.309
same,ΔΔCT,RL cells; IL1RN mRNA,−1.881
same,ΔΔCT,RL cells; IL6R mRNA,−0.515
same,ΔΔCT,RL cells; IL10 mRNA,−1.432
same,ΔΔCT,RL cells; KLF13 mRNA,−0.566
same,ΔΔCT,RL cells; LOX mRNA,−0.580
same,ΔΔCT,RL cells; MERTK mRNA,−4.419
same,ΔΔCT,RL cells; MT2A mRNA,0.577
same,ΔΔCT,RL cells; NFKBIA mRNA,0.854
same,ΔΔCT,RL cells; NR3C1 mRNA,0.067
same,ΔΔCT,RL cells; PDCD7 mRNA,0.006
same,ΔΔCT,RL cells; PDP1 mRNA,−0.989
same,ΔΔCT,RL cells; PER1 mRNA,0.384
same,ΔΔCT,RL cells; PER2 mRNA,−0.361
same,ΔΔCT,RL cells; PIK3R1 mRNA,0.373
same,ΔΔCT,RL cells; PLEKHF1 mRNA,0.050
same,ΔΔCT,RL cells; POU2F1 mRNA,−0.027
same,ΔΔCT,RL cells; POU2F2 mRNA,−0.584
same,ΔΔCT,RL cells; RA5A3 mRNA,−0.009
same,ΔΔCT,RL cells; RGS2 mRNA,−0.162
same,ΔΔCT,RL cells; SESN1 mRNA,−1.697
same,ΔΔCT,RL cells; SGK1 mRNA,0.801
same,ΔΔCT,RL cells; SLC19A2 mRNA,−0.797
same,ΔΔCT,RL cells; SNTA1 mRNA,0.040
same,ΔΔCT,RL cells; SPHK1 mRNA,−0.781
same,ΔΔCT,RL cells; SPSB1 mRNA,−0.865
same,ΔΔCT,RL cells; STAT5A mRNA,0.001
same,ΔΔCT,RL cells; STAT5B mRNA,−0.094
same,ΔΔCT,RL cells; TNF mRNA,−0.837
same,ΔΔCT,RL cells; TNFAIP3 mRNA,0.886
same,ΔΔCT,RL cells; USP2 mRNA,−0.139
same,ΔΔCT,RL cells; USPS4 mRNA,−0.961
same,ΔΔCT,RL cells; VDR mRNA,−2.658
same,ΔΔCT,RL cells; ZHX3 mRNA,4.661
same,ΔΔCT,RL cells; ZNF281 mRNA,0.046
